Data published in paper PMC10988555, “Exploiting Co(III)-Cyclopentadienyl Complexes To Develop Anticancer Agents” (Inorganic Chemistry, 2024).

Tests used:
Type in all cases: cell-based, human
[1] = system: Caspase 8 in A2780 cell line; experiment: Caspase 8 activity assay; conditions: A2780, IC50, 48 h, normalized to DMSO
Experimental: The A2780 cell line was seeded in 25 cm^2 T-flasks at a density of 2 × 10^6 cells/T-flasks. […] After that, cells were detached using cold PBS 1× and a cell scraper and centrifuged at 500 × g for 5 min. Then, we followed the instructions provided by the manufacturer of the Caspase-8 assay kit (Abcam). The data was obtained by measuring the absorbance of each sample at 400 nm and each value was normalized to the value of the DMSO sample.

[2] = system: A2780 cells; experiment: Cellular viability after 12 h at 37 °C versus 4 °C; conditions: A2780, 12 h, 20× IC50
[3] = system: BAX and BCL-2 proteins in A2780 cell line; experiment: BAX and BCL-2 protein expression by Western blot; conditions: A2780, IC50, 48 h, normalized against DMSO control (=1)
Experimental: The quantification of BAX and BCL-2 protein expression in the A2780 cell line incubated with different cobalt complexes in the A2780 cell line was determined by WB. For this, the A2780 cell line was cultivated in 25 cm^2 T-flasks at a density of 2 × 10^6 cells/mL and incubated for 24 h in the conditions described above. […] After 48 h incubation, the cells were washed and collected using cold PBS 1× and a cell scraper. The samples were centrifuged for 5 min at 700 × g and resuspended in fresh lysis buffer (150 mM NaCl, 5 mM ethylenediaminetetraacetic acid (EDTA), 50 mM Tris–HCl at pH 8.0, 2% (v/v) NP-40, 1× phosphatase inhibitors (PhosStop, Roche), 1× Protease inhibitors (complete ULTRA tablets, Mini, easypack, Roche), 1 mM phenylmethylsulfonylfuoride (PMSF) and 0.1% 1,4-dithiothreitol (v/v), DTT) and then storage at −80 °C for 2 h or until required. Cells were submitted to 5 ultrasound cycles and centrifuged at 1000 × g for 5 min. The total protein extract (supernatant) was quantified with Pierce Protein Assay Reagent (ThermoFisher Scientific) at 660 nm. […]
The membranes were incubated with WesternBright ECL subtract (Advansta) for 5 min in the dark and the film was exposed to the membranes in a dark room. […] Protein quantification was made by densitometry with ImageJ software.

SMILES	caspase 8 activity relative to control [1]	cytotoxic activity at 4 °C compared to 37 °C [2]	BAX/BCL-2 ratio [3]
Cc1ccnc(-c2cc(C)ccn2)c1.O=S(=O)([O-])C(F)(F)F.O=S(=O)([O-])C(F)(F)F.[Co+3].c1cc[cH-]c1.c1ccc(P(c2ccccc2)c2ccccc2)cc1 [Complex 2, [Co(η^5-C5H5)(PPh3)(Me2bipy)][(CF3SO3)2]]	2 ×	significantly lose some of their cytotoxic activity at 4 °C	
O=S(=O)([O-])C(F)(F)F.O=S(=O)([O-])C(F)(F)F.[Co+3].c1cc[cH-]c1.c1ccc(P(c2ccccc2)c2ccccc2)cc1.c1cnc2c(c1)ccc1cccnc12 [Complex 3, [Co(η^5-C5H5)(PPh3)(phen)][(CF3SO3)2]]		significantly lose some of their cytotoxic activity at 4 °C	2.8
Nc1cc2cccnc2c2ncccc12.O=S(=O)([O-])C(F)(F)F.O=S(=O)([O-])C(F)(F)F.[Co+3].c1cc[cH-]c1.c1ccc(P(c2ccccc2)c2ccccc2)cc1 [Complex 4, [CoCp(PPh3)(NH2phen)][(CF3SO3)2]]	1.6 ×		< 1
